US5318971A, “3-Substituted-1-aryl-2(1H)-quinolones useful as anti-allergy and anti-inflammatory agents” (Schering Corporation, priority 1991, dated 1994)
Like-named read-outs stand apart in the source and are kept apart here.

Legend:
rat pleural cavity = experiment: Reverse Passive Arthus Pleurisy Reaction (RPAPR), pleural exudate cells and fluid; format: in vivo; details: po; for inhibition in vivo at 5 mg/kg: 5 mg/kg p.o.; for inhibition in vivo at 10 mg/kg: 10 mg/kg p.o.; for inhibition in vivo at 25 mg/kg: 25 mg/kg p.o.
Experimental: (§1) RPAPR was produced by a modification of the Yamamoto et al. method (Agents and Actions 5: 374-377, 1975). Thirty (30) minutes prior to lightly anesthesizing rats with ether and then sensitizing them by injecting the animals i.v. with 0.33 mg of bovine serum albumin (BSA) dissolved in 0.2 ml sterile saline, a test compound was administered per os (p.o.) as indicated in Table 1. Thirty minutes later, the rats were again lightly anesthetized and challenged intrapleurally with a rabbit anti-BSA antibody (Organon), containing 1.2 mg antibody protein, dissolved in 0.2 ml sterile saline. Four hours after challenge the rats were sacrificed by CO2 inhalation, their pleural cavities exposed and the exudate harvested. The total volumes of each exudate was recorded and the total number of leukocytes determined using a Coulter Counter ZM.

[1] = test system: SRS-A (leukotriene) release, guinea pig lung; experiment: SRSA Release in vitro (leukotriene release from sensitized guinea pig lung fragments); format: cell-based; details: Cavia porcellus, ovalbumin challenge, read-out: SRSA Release in vitro % l
Experimental: First, kill sensitized guinea pigs by a blow to the head, remove the lungs and clean them of visible connective tissue, trachea and large blood vessels. Slice the lungs from individual animals into fragments approximately 1 mm in thickness using a Mcllwain tissue chopper and wash them with oxygenated Tyrode's buffer. Transfer weighted allquots (approximately 400 mg wet weight) of lung into vials containing 2 ml of fresh Tyrode's solution (containing 10 mM cysteine) and incubate in the presence or absence of test compound for 12 minutes at 37° C., challenge the tissues with 20 μg ovalbumin/ml (final concentration) and incubate for 15 minutes.
To measure leukotriene release, extract an aliquot of supernatant fluid with 4 volumes of 100% ethanol. After removal of the precipitated protein, dry the clear fluid under a stream of N2 gas. Measure the leukotriene content by a radioimmunoassay using [^3 H]LTC4 (leukotriene C4) and antiserum obtained from New England Nuclear. Calculate percent inhibition of leukotriene release by comparing for each lung the release in the presence of the test compound to that in the absence of test compound.

LTE4 (Leukotriene E4) = experiment: Reverse Passive Arthus Pleurisy Reaction (RPAPR), LTE4 in pleural exudate; format: in vivo; details: rat, 25 mg/kg p.o.; radioimmunoassay of exudate
Experimental: as §1
(§2) The exudate were then centrifuged and the supernatants decanted. Four volumes of cold 95% acetone was added for each volume of exudate. One half hour later the samples were again centrifuged for 10 minutes. Immediately after, 5 ml of the supernatant was removed and dried under nitrogen. These samples were kept in a freezer until LTE4 and TxB2 were determined using a radioimmune assay kit from Amersham.
LTE4 = Leukotriene E4 a measure of lipoxygenase (LO) derived
(§3) mediators of inflammation.

TXB2 (Thromboxane B2) = experiment: Reverse Passive Arthus Pleurisy Reaction (RPAPR), TxB2 in pleural exudate; format: in vivo; details: rat, 25 mg/kg p.o.; radioimmunoassay of exudate
Experimental: as §1, §2
TXB2 = Thromboxane B2 a measure of cyclooxygenase (CO) derived
as §3

[2] = test system: antigen-induced SRS-A mediated bronchoconstriction; experiment: Guinea Pig Bronchospasm (anaphylactic bronchospasm in sensitized guinea pigs); format: in vivo; details: 5 mg/kg p.o., ovalbumin aerosol challenge
Experimental: The anti-allergy activity of the compounds of this invention is identified by tests which measure a compound's inhibition of anaphylactic bronchospasms in sensitized guinea pigs having antigen-induced SRS-A mediated bronchoconstriction. Allergic bronchospasms were measured in actively sensitized guinea pigs by a modification of the procedure of Konzett and Rossler, Arch. Expt. Pathol. Pharmakol., 194, pp. 71-74 (1940). Male Hartly guinea pigs were sensitized with 5 mg ovalbumin injected ip and 5 mg injected sc in 1 ml saline on day 1 and 5 mg ovalbumin injected ip on day 4. To measure anaphylactic bronchospasm, sensitized guinea pigs were fasted overnight and the following morning were anesthetized with 0.9 mL/kg ip dialurethane. The trachea and jugular vein were cannulated and the animals were ventilated by a Harvard rodent respirator. A side arm to the tracheal cannula was connected to a Harvard pressure transducer to obtain a continuous measure of intratracheal pressure. An increase in intratracheal pressure was taken as a measure of bronchoconstriction. Each guinea pig was injected i.v. with 1 mg/kg propranolol, 5 mg/kg indomethacin and 2 mg/kg mepyramine given together in a volume of 1 mL/kg. […] Bronchoconstriction was measured as the peak increase in intratracheal pressure occurring within 15 minutes after antigen challenge.

[3] = Leukocyte, leukocytes in exudate 4 h after challenge, read-out: % Inhibition Cells
[4] = exudate volume 4 h after challenge, read-out: % Inhibition Fluid

Row | SMILES | inhibition in vivo at 25 mg/kg (rat pleural cavity; [3]) [%] | inhibition in vivo at 25 mg/kg (rat pleural cavity; [4]) [%] | further results
1 | O=c1c(Cn2cncn2)cc2ccccc2n1-c1ccccc1 [Formula 2] |  |  | inhibition in vivo at 5 mg/kg (rat pleural cavity; [3]): 64%; inhibition in vivo at 5 mg/kg (rat pleural cavity; [4]): 42%; inhibition at 30 µM [1]: 83%
2 | O=c1c(Cn2cnnn2)cc2ccccc2n1-c1ccccc1 [Formula 3] |  |  | inhibition in vivo at 10 mg/kg (rat pleural cavity; [3]): 75%; inhibition in vivo at 10 mg/kg (rat pleural cavity; [4]): 50%; inhibition at 30 µM [1]: 83%
3 | Cn1ccnc1SCc1cc2ccccc2n(-c2ccccc2)c1=O [Formula 48, 1-Phenyl-3-(1-Methyl-1H-imidazol-2-ylthiomethyl)-2(1H)-quinolone] | 75 | 40 | % Inhibition LTE4 (LTE4 (Leukotriene E4)): 57%; % Inhibition TXB2 (TXB2 (Thromboxane B2)): 67%
4 | O=c1c(CCn2ccnc2)cc2ccccc2n1-c1ccccc1 [Formula 49] | 86 | 53 | 
5 | CCc1nccn1Cc1cc2ccccc2n(-c2ccccc2)c1=O [Formula 50] | < 10 | < 10 | 
6 | C[S+]([O-])Cc1cc2ccccc2n(Cc2ccccc2)c1=O (stereo not shown) [Formula 51] | 22 | < 10 | 
7 | O=c1c(Cn2cncn2)cc2ccccc2n1Cc1ccccc1 [Formula 52] | 44 | 46 | 
8 | O=c1c(Cn2cncn2)cc2ccccc2n1-c1ccc(Cl)cc1 [Formula 53] | < 10 | 18 | G.P. Bronchospasm % l [2]: 18%; inhibition at 30 µM [1]: 76%
9 | O=c1c(Cn2cncn2)cc2cc(Br)ccc2n1-c1ccccc1 [Formula 54, 6-bromo-1-phenyl-3-(1H-1,2,4-triazol-1-ylmethyl)-2(1H)-quinolone] | < 10 | < 10 | 
10 | O=c1c(Cn2cncn2)cc2ccc(Cl)cc2n1-c1ccccc1 [Formula 55, 1-phenyl-7-chloro-3-(1H-1,2,4-triazol-1-ylmethyl)-2(1H)-quinolone] | < 10 | < 10 | 
11 | O=c1c(Cn2cncn2)cc2ccccc2n1-c1cccc(Cl)c1 [Formula 56, (1-3-Chlorophenyl)-3-(1H-1,2,4-Triazol-1-ylmethyl)-2(1H)-Quinolone] |  |  | inhibition in vivo at 5 mg/kg (rat pleural cavity; [3]): 56%; inhibition in vivo at 5 mg/kg (rat pleural cavity; [4]): 63%
12 | O=c1c(Cn2cccn2)cc2ccccc2n1-c1ccccc1 [Formula 57] | 20 | 19 | 
13 | CC(=O)NCc1cc2ccccc2n(-c2ccccc2)c1=O [Formula 58] | 62 | 53 | 
14 | CC(=O)N1CCN(Cc2cc3ccccc3n(-c3ccccc3)c2=O)CC1 [Formula 59] | 68 | 68 | 
